Values of other authors as cited in article PMC2074590 (British Journal of Cancer, 1996).

Legend:
[1] = system: Ki67, ER, PgR, pS2 in primary breast cancer; settings: similar clinical experiments; ref Howell et al., 1988; Roberston et al., 1991; Clarke et al., 1993; Nicholson et al., 1994; cited from earlier work
advanced breast cancer = settings: ref Cole et al., 1971, Patterson et al., 1981; cited from earlier work
breast cancer cells = system: breast cancer cells; set-up: method as in Wakeling and Bowler, 1987, 1988; settings: ref Wakeling and Bowler, 1987, 1988; cited from earlier work
[2] = ref Willemse et al., 1990; cited from earlier work

In the case of CC/C(=C(\c1ccccc1)c1ccc(OCCN(C)C)cc1)c1ccccc1 [tamoxifen, reference compound], the ER expression [1] is listed as “no change in ER expression”, the PgR expression [1] is listed as “slightly increased PgR expression” and the “Median duration of remission” value (advanced breast cancer) is listed as “about 18 months”.

For CCCCN(C)C(=O)CCCCCCCCCC[C@@H]1Cc2cc(O)ccc2[C@H]2CC[C@]3(C)[C@@H](O)CC[C@H]3[C@H]12 [ICI 164384, reference compound], the “Potency as inhibitor of cell growth in vitro relative to tamoxifen” value (breast cancer cells) is listed as “up to two orders of magnitude more potent than tamoxifen”.

For CC(=O)O[C@]1(C(C)=O)CC[C@H]2[C@@H]3C=C(C)C4=CC(=O)CC[C@]4(C)[C@H]3CC[C@@]21C [megestrol acetate], the “Patients with weight gain of > 5% of body weight” value [2] is listed as 25%.
